Results: patent US12552783B2, “Modulators of proteolysis and associated methods of use” (Arvinas Operations, Inc., priority 2018, dated 2026)

Target: KRas (Homo sapiens, UniProt P01116, G12C)
Assay: KRas degradation in NCI-H2030 cells by Western blot, normalized to GAPDH (data of Table 14)
Format: cell-based
Parameters: host or cells: NCI-H2030
Settings: for Dmax: NCI-H2030
How it was run: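 Readout: GAPDH-normalized KRas immunoblot signal, expressed as percent degradation versus 0.1% DMSO vehicle. Treatment: 0.3, 1, 3 μM after 24 h starvation; 24 h (VHL-based) or 72 h (others).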

SMILES | Percent Degradation at Indicated Concentration (μM): 0.3 (H2030 cells, 0.3 μM) | Percent Degradation at Indicated Concentration (μM): 1 (H2030 cells, 1 μM) | Percent Degradation at Indicated Concentration (μM): 3 (H2030 cells, 3 μM) | Dmax (H2030 cells) | Percent Degradation at Indicated Concentration (μM) (H2030, 0.3 μM) | Percent Degradation at Indicated Concentration (μM) (H2030, 1 μM) | Percent Degradation at Indicated Concentration (μM) (H2030, 3 μM) | Dmax | also measured
C=CC(=O)N1CCN(c2nc(NCCC(=O)N(C)CCOCCOc3ccc4c(c3)CN(C3CCC(=O)NC3=O)C4=O)nc3c(F)c(-c4cc(O)cc5ccccc45)c(Cl)cc23)CC1 (stereo not drawn) [compound 65, 3-((4-(4-acryloylpiperazin-1-yl)-6-chloro-8-fluoro-7-(3-hydroxynaphthalen-1-yl)quinazolin-2-yl)amino)-N-(2-(2-((2-(2,6-dioxopiperidin-3-yl)-1-oxoisoindolin-5-yl)oxy)ethoxy)ethyl)-N-methylpropanamide] | C (C ≤ 35) | C (C ≤ 35) | C (C ≤ 35) | ≤ 35% |  |  |  |  | 
C=CC(=O)N1CCN(c2nc(O[C@H](C)CN3CCC(OCCOCCOCCOCCNc4cccc5c4C(=O)N(C4CCC(=O)NC4=O)C5=O)CC3)nc3c2CCN(c2cc(O)cc4ccccc24)C3)CC1 (stereo partly drawn) [compound 414] |  |  |  |  |  |  |  |  | Percent Degradation at Indicated Concentration (μM) (H2030 cells, 0.3 μM): C (Percent Degradation: C ≤ 35); Percent Degradation at Indicated Concentration (μM) (H2030 cells, 1 μM): C (Percent Degradation: C ≤ 35); Percent Degradation at Indicated Concentration (μM) (H2030 cells, 3 μM): C (Percent Degradation: C ≤ 35)
C=CC(=O)N1CCN(c2nc(NCCC(=O)N(C)CCOCCNc3cccc4c3C(=O)N(C3CCC(=O)NC3=O)C4=O)nc3c(F)c(-c4cc(O)cc5ccccc45)c(Cl)cc23)CC1 (stereo not drawn) [compound 56, 3-((4-(4-acryloylpiperazin-1-yl)-6-chloro-8-fluoro-7-(3-hydroxynaphthalen-1-yl)quinazolin-2-yl)amino)-N-(2-(2-((2-(2,6-dioxopiperidin-3-yl)-1,3-dioxoisoindolin-4-yl)amino)ethoxy)ethyl)-N-methylpropanamide] | C (C ≤ 35) | C (C ≤ 35) | C (C ≤ 35) | ≤ 35% |  |  |  |  | 
CCC(=O)N1CCN(c2nc(NCCC(=O)N(C)CCOCCNc3cccc4c3C(=O)N(C3CCC(=O)NC3=O)C4=O)nc3c(F)c(-c4cc(O)cc5ccccc45)c(Cl)cc23)CC1 (stereo not drawn) [compound 42, 3-((6-chloro-8-fluoro-7-(3-hydroxynaphthalen-1-yl)-4-(4-propionylpiperazin-1-yl)quinazolin-2-yl)amino)-N-(2-(2-((2-(2,6-dioxopiperidin-3-yl)-1,3-dioxoisoindolin-4-yl)amino)ethoxy)ethyl)-N-methylpropanamide] | C (C ≤ 35) | C (C ≤ 35) | C (C ≤ 35) | ≤ 35% |  |  |  |  | 
C=CC(=O)N1CCN(c2nc(NCCC(=O)N(C)CCOCCOCCOCCOCCOc3ccc4c(c3)CN(C3CCC(=O)NC3=O)C4=O)nc3c(F)c(-c4c(O)cccc4F)c(Cl)cc23)CC1 [compound 95, 3-(((S)-4-(4-acryloylpiperazin-1-yl)-6-chloro-8-fluoro-7-(2-fluoro-6-hydroxyphenyl)quinazolin-2-yl)amino)-N-(14-((2-(2,6-dioxopiperidin-3-yl)-1-oxoisoindolin-5-yl)oxy)-3,6,9,12-tetraoxatetradecyl)-N-methylpropanamide] |  |  |  |  | C (Percent Degradation: C ≤ 35) | C (Percent Degradation: C ≤ 35) | C (Percent Degradation: C ≤ 35) | ≤ 35% | 
CCC(=O)N1CCN(c2nc(NCCC(=O)N(C)CCOCCOCCOc3cc(-c4scnc4C)ccc3CNC(=O)[C@@H]3C[C@@H](O)CN3C(=O)[C@@H](c3cc(C)no3)C(C)C)nc3c(F)c(-c4cc(O)cc5ccccc45)c(Cl)cc23)CC1 [compound 332, (2S,4R)-N-(2-(2-(2-(2-(3-((6-chloro-8-fluoro-7-(3-hydroxynaphthalen-1-yl)-4-(4-propionylpiperazin-1-yl)quinazolin-2-yl)amino)-N-methylpropanamido)ethoxy)ethoxy)-ethoxy)-4-(4-methylthiazol-5-yl)benzyl)-4-hydroxy-1-((R)-3-methyl-2-(3-methylisoxazol-5-yl)butanoyl)pyrrolidine-2-carboxamide] | C (C ≤ 35) | C (C ≤ 35) | C (C ≤ 35) | ≤ 35% |  |  |  |  | 
CN(CCOCCOCCOCCNc1cccc2c1C(=O)N(C1CCC(=O)NC1=O)C2=O)C(=O)CCNc1nc(N2CCN(C(N)=O)CC2)c2cc(Cl)c(-c3cc(O)cc4ccccc34)c(F)c2n1 (stereo not drawn) [compound 34, 4-(6-chloro-2-((1-((2-(2,6-dioxopiperidin-3-yl)-1,3-dioxoisoindolin-4-yl)amino)-12-methyl-13-oxo-3,6,9-trioxa-12-azapentadecan-15-yl)amino)-8-fluoro-7-(3-hydroxynaphthalen-1-yl)quinazolin-4-yl)piperazine-1-carboxamide] |  |  |  |  | C (Percent Degradation: C ≤ 35) | C (Percent Degradation: C ≤ 35) | C (Percent Degradation: C ≤ 35) | ≤ 35% | 
C=CC(=O)N1CCN(c2nc(NCCC(=O)N(C)CCOCC(=O)N[C@H](C(=O)N3C[C@H](O)C[C@H]3C(=O)N[C@@H](C)c3ccc(-c4scnc4C)cc3)C(C)(C)C)nc3c(F)c(-c4cc(O)cc5ccccc45)c(Cl)cc23)CC1 [compound 191, (2S,4R)-1-((2S)-2-(2-(2-(3-((4-(4-acryloylpiperazin-1-yl)-6-chloro-8-fluoro-7-(3-hydroxynaphthalen-1-yl)quinazolin-2-yl)amino)-N-methylpropanamido)ethoxy)acetamido)-3,3-dimethylbutanoyl)-4-hydroxy-N-((S)-1-(4-(4-methylthiazol-5-yl)phenyl)ethyl)pyrrolidine-2-carboxamide] | C (C ≤ 35) | C (C ≤ 35) |  | ≤ 35% |  |  |  |  | Percent Degradation at Indicated Concentration (μM): 0.1 (H2030 cells, 0.1 μM): C (C ≤ 35)
C=CC(=O)N1CCN(c2nc(NCCC(=O)N(C)CCOCCOCCOCC(=O)N[C@H](C(=O)N3C[C@H](O)C[C@H]3C(=O)N[C@@H](C)c3ccc(-c4scnc4C)cc3)C(C)(C)C)nc3c(F)c(-c4cc(O)cc5ccccc45)c(Cl)cc23)CC1 [compound 193, (2S,4R)-1-((2S)-18-((4-(4-acryloylpiperazin-1-yl)-6-chloro-8-fluoro-7-(3-hydroxynaphthalen-1-yl)quinazolin-2-yl)amino)-2-(tert-butyl)-15-methyl-4,16-dioxo-6,9,12-trioxa-3,15-diazaoctadecanoyl)-4-hydroxy-N-((S)-1-(4-(4-methylthiazol-5-yl)phenyl)ethyl)pyrrolidine-2-carboxamide] | C (C ≤ 35) | C (C ≤ 35) | C (C ≤ 35) | ≤ 35% |  |  |  |  | 
CCC(=O)N1CCN(c2nc(NCCC(=O)N(C)CCOCC(=O)N[C@H](C(=O)N3C[C@H](O)C[C@H]3C(=O)N[C@@H](C)c3ccc(-c4scnc4C)cc3)C(C)(C)C)nc3c(F)c(-c4cc(O)cc5ccccc45)c(Cl)cc23)CC1 [compound 186, (2S,4R)-1-((2S)-2-(2-(2-(3-((6-chloro-8-fluoro-7-(3-hydroxynaphthalen-1-yl)-4-(4-propionylpiperazin-1-yl)quinazolin-2-yl)amino)-N-methylpropanamido)ethoxy)acetamido)-3,3-dimethylbutanoyl)-4-hydroxy-N-((S)-1-(4-(4-methylthiazol-5-yl)phenyl)ethyl)pyrrolidine-2-carboxamide] | C (C ≤ 35) | C (C ≤ 35) | C (C ≤ 35) | ≤ 35% |  |  |  |  | 
CC(=O)N1CCN(c2nc(NCCC(=O)N(C)CCOCCOCC(=O)N[C@H](C(=O)N3C[C@H](O)C[C@H]3C(=O)N[C@@H](C)c3ccc(-c4scnc4C)cc3)C(C)(C)C)nc3c(F)c(-c4cc(O)cc5ccccc45)c(Cl)cc23)CC1 [compound 201, (2S,4R)-1-((2S)-15-((4-(4-acetylpiperazin-1-yl)-6-chloro-8-fluoro-7-(3-hydroxynaphthalen-1-yl)quinazolin-2-yl)amino)-2-(tert-butyl)-12-methyl-4,13-dioxo-6,9-dioxa-3,12-diazapentadecanoyl)-4-hydroxy-N-((S)-1-(4-(4-methylthiazol-5-yl)phenyl)ethyl)pyrrolidine-2-carboxamide] |  |  |  |  | C (Percent Degradation: C ≤ 35) | C (Percent Degradation: C ≤ 35) | C (Percent Degradation: C ≤ 35) | ≤ 35% | 
CCC(=O)N1CCN(c2nc(NCCC(=O)N(C)CCOCCOCCOc3ccc4c(c3)C(=O)N(C3CCC(=O)NC3=O)C4=O)nc3c(F)c(-c4cc(O)cc5ccccc45)c(Cl)cc23)CC1 (stereo not drawn) [compound 48, 3-((6-chloro-8-fluoro-7-(3-hydroxynaphthalen-1-yl)-4-(4-propionylpiperazin-1-yl)quinazolin-2-yl)amino)-N-(2-(2-(2-((2-(2,6-dioxopiperidin-3-yl)-1,3-dioxoisoindolin-5-yl)oxy)ethoxy)ethoxy)ethyl)-N-methylpropanamide] | C (C ≤ 35) | C (C ≤ 35) | C (C ≤ 35) | ≤ 35% |  |  |  |  | 
Cc1ncsc1-c1ccc([C@H](C)NC(=O)[C@@H]2C[C@@H](O)CN2C(=O)[C@@H](NC(=O)COCCOCCOCCOCC/C=C/C(=O)N2CCN(c3nc(NCCC(=O)N(C)C)nc4c(F)c(-c5cc(O)cc6ccccc56)c(Cl)cc34)CC2)C(C)(C)C)cc1 [compound 366] |  |  |  |  | C (Percent Degradation: C ≤ 35) | C (Percent Degradation: C ≤ 35) | C (Percent Degradation: C ≤ 35) | ≤ 35% | 
